The subject of data set [1] is patients with Fragile X syndrome. Particulars: cited from earlier work; for Efficacy on symptoms in patients with Fragile X Syndrome: published trials.
In data set [2] the test system is FMR1-KO mice. As to the kind of experiment: Open field, locomotive activity (hyperactivity). It is filed as in vivo, mouse. Conditions: chronic treatment, 15-minute period, treated vs FMR1-KO without treatment, saline control and Tianeptine (tianeptine group: FMR1-KO vs WT). The text has this:
FIG. 1. Open-field distance travelled by the mice in a 15-minute period of time for the different treatments.
In all the groups of WT mice, locomotion was maintained without significant variations, about 4000 cm of distance travelled (FIG. 1); this test was used to check the mice's hyperactivity.

The subject of data set [3] is FMR1-KO mice. Description: Raised cross-shaped maze (anxiety). It is filed as in vivo, mouse. Conditions: chronic treatment, 5-minute period, treated vs FMR1-KO without treatment, saline control and Tianeptine (Tianeptine group: FMR1-KO vs WT). The source says:
FIG. 2. Percentage permanence time in the open arm of the raised cross-shaped maze in a 5-minute period of time for the different treatments.
This test is used to determine the anxiety of the animal model, under baseline and treated conditions.

Data set [4] relates to FMR1-KO mice. Description: Measurement of corticosterone in serum. It is filed as in vivo, mouse. Particulars: FMR1-KO mice vs WT controls under the same treatment. The source says: FIG. 3. Concentration of corticosterone in mouse serum (ng/ml).
Data set [5] relates to FMR1-KO mice. As to the kind of experiment: Level of lipid peroxidation (TBARS) in cerebral membranes. It is filed as in vivo, mouse. Conditions: FMR1-KO vs WT under treatment; tianeptine: both genotypes vs saline control. The source says:
FIG. 4. Concentration of TBARS in mouse cerebral membranes (nmol/mg protein).

In data set [6] the test system is FMR1-KO mice. Description: Reduced glutathione (GSH) in brain extract. It is filed as in vivo, mouse. Conditions: vs saline control. The text has this:
FIG. 5. Concentration of GSH in mouse brain extract (μmol/g protein). FMR1-KO (n=8): black bars and WT (n=9): white bars. *p<0.05 FMR1-KO vs. WT. # p<0.05 FMR1-KO vs. FMR1-KO. † p<0.05 WT vs. WT.

Data set [7] relates to FMR1-KO mice. Description: Oxidised glutathione (GSSG, % of GSH) in brain extract. It is filed as in vivo, mouse. Conditions: vs saline and naive controls. The source says:
FIG. 6. Percentage of GSSG with respect to GSH in mouse brain extract. FMR1-KO (n=8): black bars and WT (n=9): white bars. *p<0.05 FMR1-KO vs. WT. # p<0.05 FMR1-KO vs. FMR1-KO. † p<0.05 WT vs. WT.

The next data set deals with Fmr1-KO mouse. Conditions: chronic treatment; cited from earlier work.
Another data set has as its system children with Autism. Conditions: 18 children with Autism; cited from earlier work.
For data set [8] the following is noted: human; cited from earlier work.
The subject of data set [9] is patients with Alzheimer's disease. Conditions: cited from earlier work.
For data set [10], the system named is transgenic mouse model for Alzheimer's disease. Particulars: cited from earlier work.
For data set [11], the system named is cytotoxicity induced by L-buthionine-sulfoximine (BSO). Conditions: BSO causes decrease in intracellular glutathione; cited from earlier work.

As for `COC(=O)N1CC[C@@H]2[C@H]1CCC[C@@]2(O)C#Cc1cccc(C)c1` [AFQ056], the “Efficacy on symptoms in patients with Fragile X Syndrome” value (“Efficacy on symptoms in patients” for short) in data set [1] was “demonstrates its effectiveness on the behavioural and learning problems”.
As to `CN1CC(=O)NC1=NC(=O)Nc1cccc(Cl)c1` [Fenoban], the “Efficacy on symptoms in patients” value in [1] was “efficacy”.
As to `CC(=O)O[C@H](CC(=O)[O-])C[N+](C)(C)C` [L-acetylcarnitine], the “Efficacy on symptoms in patients” value in data set [1] is “efficacy in reducing hyperactivity and improving social relations”.
`COc1ccc2[nH]cc(CCNC(C)=O)c2c1` [Melatonin]: in the data set with FMR1-KO mice [2], the “Open-field total distance travelled” value was “lower (p<0.05)”. Further, the “Percentage permanence time in the open arm of the raised cross-shaped maze” value in the data set on FMR1-KO mice [3] was “lower (p<0.05)”. The “Concentration of corticosterone in serum” value with FMR1-KO mice [4] is “maintained the same levels of corticosterone as compared to the WT controls”. Also, in the data set on FMR1-KO mice [5], the “Levels of TBARS in cerebral membranes” value was “normalises the levels of TBARS”. For the same compound, the “GSH in brain extract” value in the data set with FMR1-KO mice [6] is reported as “higher values of GSH”. For the same compound, the “Percentage of GSSG with respect to GSH in brain extract” value in the data set on FMR1-KO mice [7] is “normalised the values of GSSG”. Also, the “Efficacy on symptoms in patients” value in data set [1] is listed as “reduce the sleep problems”. Besides, in the data set on Fmr1-KO mouse, the “Effect on parameters characteristic of the syndrome (hyperactivity, anxiety disorder, cognitive deficit)” value is given as “normalising several parameters characteristic of the syndrome”.
On to `CC12CC3CC(C)(C1)CC(N)(C3)C2` [Nemantine], for which the “Patients showing symptoms of improvement” value in [1] (of 6 affected patients) was 4.
In the case of `CN1c2ccccc2C(NCCCCCCC(=O)O)c2ccc(Cl)cc2S1(=O)=O` (centres unmarked) [Tianeptine], the “Open-field total distance travelled” value in the data set on FMR1-KO mice [2] is “greater total travelled distance”.
Turning to `O=C1O[C@H]([C@@H](O)CO)C(O)=C1O` [Vitamin C, Ascorbic Acid], the “Effect on symptoms of Autism” value in the data set on children with Autism is “significant decrease of some symptoms”. In addition, in [8], the Half-life is given as 16 days.
Take `Cc1c(C)c2c(c(C)c1O)CC[C@@](C)(CCC[C@H](C)CCC[C@H](C)CCCC(C)C)O2` [Vitamin E, alpha-Tocopherol]: the “Open-field total distance travelled” value in the data set with FMR1-KO mice [2] is reported as “lower (p<0.05)”. Moreover, the “Percentage permanence time in the open arm of the raised cross-shaped maze” value in the data set on FMR1-KO mice [3] was “lower (p<0.05)”. Besides, the “Concentration of corticosterone in serum” value in the data set with FMR1-KO mice [4] is listed as “maintained the same levels of corticosterone as compared to the WT controls”. The “Levels of TBARS in cerebral membranes” value with FMR1-KO mice [5] was “normalises the levels of TBARS”. Besides, the “GSH in brain extract” value with FMR1-KO mice [6] was “higher values of GSH”. In the data set with FMR1-KO mice [7], the “Percentage of GSSG with respect to GSH in brain extract” value was “normalised the values of GSSG”. For the same compound, the “Effect on parameters characteristic of the syndrome (hyperactivity, anxiety disorder, cognitive deficit)” value in the data set on Fmr1-KO mouse is listed as “normalising several parameters characteristic of the syndrome”. Also, the “Effect on mental deterioration” value in data set [9] is listed as “capable of delaying mental deterioration”. In [10], the “Lipid peroxidation and amyloid deposition” value is “reduced lipid peroxidation and amyloid deposition”. Also, the “Protection against BSO-induced cytotoxicity” value in [11] is “significant protection”.
On to `COc1cc2c(cc1OC)C(=O)C(CC1CCN(Cc3ccccc3)CC1)C2` (centres unmarked) [donezepil], for which, in data set [1], the “Efficacy on symptoms in patients” value is “significantly improves cognitive and behavioural functions”.
